The IC50 is the concentration at which inhibition is half-maximal. Low values mean greater potency in that assay, high ones weaker potency in that assay. As a reminder, the half-life is how long it takes for the measured level to halve.

Some results are limits rather than exact numbers.

The values that follow come from article PMC3335822 (PLoS ONE, 2012).

In data set [1] the target is T1, PTP1B (Homo sapiens, UniProt P18031).
T1 construct: made in house
T1 sequence (P18031 1-435): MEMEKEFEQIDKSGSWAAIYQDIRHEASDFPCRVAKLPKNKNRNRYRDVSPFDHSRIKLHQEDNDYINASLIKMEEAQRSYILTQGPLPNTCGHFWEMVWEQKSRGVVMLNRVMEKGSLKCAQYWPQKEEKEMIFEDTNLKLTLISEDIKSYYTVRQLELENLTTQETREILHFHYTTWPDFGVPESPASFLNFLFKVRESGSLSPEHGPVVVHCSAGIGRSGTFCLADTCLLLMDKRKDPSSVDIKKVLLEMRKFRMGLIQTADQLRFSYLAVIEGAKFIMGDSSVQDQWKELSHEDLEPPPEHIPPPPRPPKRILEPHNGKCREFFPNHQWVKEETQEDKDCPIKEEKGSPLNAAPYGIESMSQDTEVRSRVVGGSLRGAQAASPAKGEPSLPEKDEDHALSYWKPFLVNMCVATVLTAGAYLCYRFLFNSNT
Kind of data set: pNPP hydrolysis by PTP1B. Conditions: for IC50: substrate pNPP. Type of data set: biochemical. How it is done:
The catalytic domain of human Eyes Absent 2 was similarly sub-cloned as a poly-histidine fusion construct in the vector pDEST-527. Fusion protein was purified by Ni-NTA chromatography and followed by size-exclusion chromatography over a Superdex-75 column. The relative purity of protein samples was determined using SDS-PAGE. PTP1B was purified as described previously.
(§1) Compounds were dissolved in DMSO and diluted as needed. […] Reactions were incubated at 30°C for 30 minutes and quenched with 100 mM EDTA pH 10. IC50 values were then calculated directly from regression curves using PRISM. All reported values are the mean of two independent experiments.

In data set [2] the target is T2, human EYA3 (Homo sapiens, UniProt Q99504).
T2 construct: residues 127–573 of NM_001990, isoform 1; His-GST (poly-histidine, glutathione-S-transferase) with TVMV protease site (cleaved yes); made in house
T2 sequence (Q99504 127-573): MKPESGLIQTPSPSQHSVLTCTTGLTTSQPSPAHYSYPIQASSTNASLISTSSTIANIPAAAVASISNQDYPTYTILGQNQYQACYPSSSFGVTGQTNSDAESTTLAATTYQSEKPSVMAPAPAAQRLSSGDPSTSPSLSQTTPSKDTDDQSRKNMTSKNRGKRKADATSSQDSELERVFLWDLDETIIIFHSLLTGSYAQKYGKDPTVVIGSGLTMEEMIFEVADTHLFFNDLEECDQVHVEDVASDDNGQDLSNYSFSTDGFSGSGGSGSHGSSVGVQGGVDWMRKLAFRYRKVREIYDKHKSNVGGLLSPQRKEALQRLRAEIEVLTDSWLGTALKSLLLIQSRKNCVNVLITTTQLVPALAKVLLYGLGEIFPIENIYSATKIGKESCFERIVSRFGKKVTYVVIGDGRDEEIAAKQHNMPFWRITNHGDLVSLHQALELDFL
Kind of data set: pNPP hydrolysis by full-length EYA3. In kind it is biochemical. The settings on record: full-length human EYA3, substrate pNPP.
Source text: The catalytic domain (ED) of mouse Eyes Absent 3 (Eya3(223–510)) was purified as described before. Human Eyes Absent 3 isoform 2 (representing the major species identified in human cell lines by mass spectrometry and residues 127–573 of NM_001990, isoform 1) was sub-cloned into pDEST565 to express a poly-histidine- Glutathione-S-transferase (His-GST) tagged fusion protein with a TVMV protease site. The protein was purified by glutathione-S-transferase affinity chromatography followed by TVMV cleavage, Ni-NTA chromatography, and finally size exclusion chromatography. […]
as §1

Data set [3] deals with T3, Eya3(ED) (Mus musculus, UniProt P97480).
T3 construct: The catalytic domain (ED) of mouse Eyes Absent 3 (Eya3(223–510)) was purified; made in house
T3 sequence (P97480 223-510): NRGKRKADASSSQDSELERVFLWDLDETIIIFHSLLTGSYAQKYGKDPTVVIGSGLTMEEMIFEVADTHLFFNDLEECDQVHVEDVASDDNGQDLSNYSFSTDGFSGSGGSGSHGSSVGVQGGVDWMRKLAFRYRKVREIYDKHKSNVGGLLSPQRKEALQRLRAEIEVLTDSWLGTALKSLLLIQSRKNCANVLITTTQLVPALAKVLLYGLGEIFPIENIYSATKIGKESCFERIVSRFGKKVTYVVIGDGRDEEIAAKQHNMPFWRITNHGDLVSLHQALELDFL
Kind of data set: pNPP hydrolysis by the catalytic domain of Eya3. In kind it is biochemical. The settings on record: substrate pNPP 3.4 mM, pH 6, 30°C, 30 minutes.
Source text: The catalytic domain (ED) of mouse Eyes Absent 3 (Eya3(223–510)) was purified as described before. Human Eyes Absent 3 isoform 2 (representing the major species identified in human cell lines by mass spectrometry and residues 127–573 of NM_001990, isoform 1) was sub-cloned into pDEST565 to express a poly-histidine- Glutathione-S-transferase (His-GST) tagged fusion protein with a TVMV protease site. The protein was purified by glutathione-S-transferase affinity chromatography followed by TVMV cleavage, Ni-NTA chromatography, and finally size exclusion chromatography.
The NCI Diversity Set II was obtained from the NCI in 96-well trays from the NIH Molecular Libraries Program and stored as 10 mM stocks in DMSO. An initial manual screen was conducted using the previously described p-nitrophenylphosphate assay and mouse Eya3(223–510) in a reaction mixture containing 20 mM MES pH 6, 2 mM MgCl2, 125 μM inhibitor, 3.4 mM para-nitrophenol phosphate (pNPP) and 0.01 μg/µL enzyme.
as §1

For data set [4] the following is noted: cited from earlier work.
The test system of data set [5] is mouse aortic rings. Kind of data set: Mouse aortic ring assay (ex vivo sprouting angiogenesis, VEGF-stimulated). Conditions: 5 μM, 10 days. As to the method:
The preparation of rat collagen and the aortic ring assay were carried out as previously described, [50]. Mice were 4 to 6 week old female C57BL/6, and aortic ring explants were cultured at 37°C in a humidified incubator under a 5% CO2 atmosphere.
Each inhibitor was serially diluted (between 0.25 mM and 7.5 mM) to stocks of 1000× the working concentrations in sterile 100% DMSO in order to achieve an equal final concentration of DMSO (0.1% v/v) in all culture conditions. For the experiments, the compounds were diluted in EBM containing 2.5% FBS, penicillin/streptomycin and 20 ng/ml VEGF165 (R&D Systems, Minneapolis, MN). Each compound was applied from the first day of culture over a 10-day period with medium change every two days. In all experiments, the vehicle (DMSO, 0.1%) was used as control. The sprouting density was derived from counting the number of branches per ring, and the extent of angiogenic sprouting was estimated by measuring the total surface area covered by the vessels.

Data set [6] concerns zebrafish embryos. Kind of data set: Analysis of zebrafish vasculature, Tg(kdrl:EGFP) embryos. In kind it is in vivo. The settings on record: exposure from about 5 hpf, analysis at 28–30 hpf. As to the method:
Tg(kdrl:EGFP)^s843 zebrafish line was used for vascular analysis. Embryos were maintained in fish water until the 50% epiboly stage (5.25 hpf) and were transferred into wells of 24-well plate containing the inhibitors in fish water. All incubation was performed at 28.5°C. The analysis for vascular defects was performed at the 28–30 hpf stages, and embryos were imaged using a fluorescence microscope.

For data set [7], the system named is MCF10A-EYA2 cells. Kind of data set: Transwell migration of MCF10A cells over-expressing EYA2. In kind it is cell-based. Conditions: 7.5 μM. How it is done: (§2) Human umbilical vein endothelial cells (HUVECs) were purchased from Lonza (Walkersville, MD) and maintained in the endothelial cell growth medium (PromoCell, Heidelberg, Germany), under a 5% CO2 atmosphere. MCF10A cells from ATCC were stably transfected with either pcDNA 3.2/V5-DEST (vector control), V5-EYA2 or V5-EYA2(mut). Transwell migration experiments were performed as previously described.

The test system of data set [8] is HUVECs. Kind of data set: HUVEC transwell migration. Conditions: 5 μM. Type of data set: cell-based, human. How it is done:
as §2

In data set [9] the test system is HUVECs. Kind of data set: HUVEC tubulogenesis assay on Matrigel. In kind it is cell-based, human. Conditions: up to 7.5 μM. How it is done:
Tubulogenesis assays were performed in 15-well micro-slide (ibidi LLC, Verona WI), using growth factor-reduced matrigel (BD Bioscience, Billerica, MA). The matrix was prepared by loading 10 μl of matrigel in each micro-slide well and allowing it to solidify for 30 minutes at 37°C. HUVECs were trypsinized and resuspended at 100,000 cell/ml in EBM +2.5% FBS. 50 μl (5,000 cell) were loaded on top of the solidified matrigel and the preparation was incubated for 20 hours at 37°C in a humidified incubator in a 5% CO2 atmosphere. Bright field images were taken using an inverted microscope at 2.5× magnification, which allowed imaging of the whole well in two pictures that were later merged in Photoshop. Tubular structures were traced and counted using NeuroJ (NIH, USA). In experiments with inhibitor, the inhibitor was added to the cell suspension before loading. Each sample was loaded in triplicate, and each treatment was repeated for reproducibility.

`CCCCC(=O)c1ccc(O)cc1` [Compound 1j]: the IC50 in data set [1], in data set [2] and in data set [3] was greater than 150 µM each time.

On to `CC(=O)c1cc(Br)c(O)c(Br)c1O` [Compound 1i], for which the IC50 in data set [1], in data set [2] and in data set [3] was greater than 150 µM throughout.

For `O=C(c1ccc(F)cc1)c1coc2ccc(O)cc12` [Compound 1d], the half-inhibitory concentration (IC50) in [1], in data set [2] and in data set [3] was greater than 150 µM each time.

Take `COc1ccc(OC)c(C(=O)c2coc3ccc(O)cc23)c1` [Compound 1f]: the concentration for half-maximal inhibition (IC50) in [1] is 102 µM; in data set [2] it was greater than 150 µM; in data set [3], greater than 150 µM.

In the case of `COc1ccc(C(=O)c2coc3ccc(O)cc23)cc1` [Compound 1e], the IC50 in data set [1], in [2] and in data set [3] was greater than 150 µM each time.

Regarding `CCc1oc2cc(O)ccc2c1C(=O)c1cc(Br)c(O)c(Br)c1` [6-hydroxybenzbromarone], in data set [4], the half-life was 30 h.

Take `O=C(c1cc2ccccc2o1)c1coc2ccc(O)cc12` [Compound 1c]: the “effect on sprouting of aortic rings” value in data set [5] is given as “negligible effect”. Besides, in data set [6], the “effect on the developing vasculature” value was “no effect on the vasculature”. Moreover, in data set [1] (pNPP hydrolysis), the “selectivity EYA3 versus PTP1B, in words” value was “preferentially inhibited PTP1B”. The IC50 in data set [1] is 11.8 µM; in [2] it was greater than 150 µM; in data set [3], greater than 150 µM. Also, the “effect on migration of MCF10A(EYA2) cells” value in data set [7] is reported as “had no effect on cell motility”.

On to `CC(=O)c1c(C)oc2ccc(O)cc12` [Compound 1g], for which the concentration for half-maximal inhibition (IC50) in [1], in data set [2] and in [3] was greater than 150 µM in each case.

Regarding `COc1ccc(CC(=O)c2ccc(O)cc2O)cc1` [Compound 1h], the IC50 in data set [1], in data set [2] and in data set [3] was greater than 150 µM each time.

On to `CCCCc1oc2ccccc2c1C(=O)c1ccc(O)cc1` [Compound 1b], for which the “effect on sprouting of aortic rings” value in data set [5] was “shorter sprouts and significantly lower microvascular density”. Also, in data set [6], the “effect on the developing vasculature” value was “reduced the number of intersegmental vessels, but were less potent”. Further, the “effect on HUVEC cell motility” value in data set [8] is listed as “attenuated HUVEC cell motility”. Further, in data set [9], the “effect on tubulogenesis, in words” value is listed as “effective only at the highest concentrations tested (7.5 μM)”. This compound also showed an IC50 in data set [1] of 71.4 µM. Also, the “effect on migration of MCF10A(EYA2) cells” value in data set [7] is reported as “significantly inhibited cell migration”.
